# Patent US10351546B2, “Pyridin-3-yl acetic acid derivatives as inhibitors of human immunodeficiency virus replication” (priority 2015, dated 2019)
# Test system: NL-RLuc virus
# Test: Inhibition of HIV replication (NL-RLuc luciferase reporter virus in MT-2 cells)
# Format: cell-based
# Settings: Human immunodeficiency virus 1, MT2, 120 h, read-out: Activity
# Outline: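 The read-out is Renilla luciferase expressed by replication-competent NL-RLuc (nef partly replaced), measured 5 days after infection of MT-2 cells grown with compound dilutions in 10% FBS RPMI. Median effect equation gives EC50 from ≥2 runs; A ≤100 nM, B 100 nM–1 uM, C >1 uM.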
row,Structure (SMILES),EC50 [µM]
1,"Cc1cc(F)ccc1CN1CCc2cc(-c3c(CN(C)CC4CCOCC4)nc(C)c([C@H](OC(C)(C)C)C(=O)O)c3N3CCC(C)(C)CC3)ccc2C1 [Example 137, (S)-2-(tert-Butoxy)-2-(4-(4,4-dimethylpiperidin-1-yl)-5-(2-(4-fluoro-2-methylbenzyl)-1,2,3,4-tetrahydroisoquinolin-6-yl)-2-methyl-6-((methyl((tetrahydro-2H-pyran-4-yl)methyl)amino)methyl)pyridin-3-yl)acetic acid]",< 0.1
2,"Cc1cc(F)ccc1CN1CCc2cc(-c3c(CN4[C@@H]5CC[C@H]4CN(C)C5)nc(C)c([C@H](OC(C)(C)C)C(=O)O)c3N3CCC(C)(C)CC3)ccc2C1 [Example 138, (S)-2-(tert-Butoxy)-2-(4-(4,4-dimethylpiperidin-1-yl)-5-(2-(4-fluoro-2-methylbenzyl)-1,2,3,4-tetrahydroisoquinolin-6-yl)-2-methyl-6-(((1R,5S)-3-methyl-3,8-diazabicyclo[3.2.1]octan-8-yl)methyl)pyridin-3-yl)acetic acid]",< 0.1
3,"Cc1nc(CN2CCSCC2)c(-c2ccc(OCCc3ccc(F)cc3)cc2)c(N2CCC(C)(C)CC2)c1[C@H](OC(C)(C)C)C(=O)O [Example 79, (S)-2-(tert-Butoxy)-2-(4-(4,4-dimethylpiperidin-1-yl)-5-(4-(4-fluorophenethoxy)phenyl)-2-methyl-6-(thiomorpholinomethyl)pyridin-3-yl)acetic acid]",< 0.1
4,"Cc1cc(F)ccc1CN1CCc2cc(-c3c(CNCc4cccnc4)nc(C)c([C@H](OC(C)(C)C)C(=O)O)c3N3CCC(C)(C)CC3)ccc2C1 [Example 126, (S)-2-(tert-Butoxy)-2-(4-(4,4-dimethylpiperidin-1-yl)-5-(2-(4-fluoro-2-methylbenzyl)-1,2,3,4-tetrahydroisoquinolin-6-yl)-2-methyl-6-(((pyridin-3-ylmethyl)amino)methyl)pyridin-3-yl)acetic acid]",< 0.1
5,"Cc1nc(CNC23CC(C2)C3)c(-c2ccc(OCCc3ccc(F)cc3)cc2)c(N2CCC(C)(C)CC2)c1[C@H](OC(C)(C)C)C(=O)O [Example 174, (S)-2-(6-((Bicyclo[1.1.1]pentan-1-ylamino)methyl)-4-(4,4-dimethylpiperidin-1-yl)-5-(4-(4-fluorophenethoxy)phenyl)-2-methylpyridin-3-yl)-2-(tert-butoxy)acetic acid]",< 0.1
6,"Cc1nc(NS(C)(=O)=O)c(-c2ccc(OCCc3ccc(F)cc3)cc2)c(N2CCC(C)(C)CC2)c1[C@H](OC(C)(C)C)C(=O)O [Example 48, (S)-2-(tert-Butoxy)-2-(4-(4,4-dimethylpiperidin-1-yl)-5-(4-(4-fluorophenethoxy)phenyl)-2-methyl-6-(methylsulfonamido)pyridin-3-yl)acetic acid]",< 0.1
7,"CC(=O)N(C)Cc1nc(C)c([C@H](OC(C)(C)C)C(=O)O)c(N2CCC(C)(C)CC2)c1-c1ccc(OCCc2ccc(F)cc2)cc1 [Example 101, (S)-2-(tert-Butoxy)-2-(4-(4,4-dimethylpiperidin-1-yl)-5-(4-(4-fluorophenethoxy)phenyl)-2-methyl-6-((N-methylacetamido)methyl)pyridin-3-yl)acetic acid]",< 0.1
8,"CCN(CC)CCOCc1nc(C)c([C@H](OC(C)(C)C)C(=O)O)c(N2CCC(C)(C)CC2)c1-c1ccc(OCCc2ccc(F)cc2)cc1 [Example 23, (S)-2-(tert-Butoxy)-2-(6-((2-(diethylamino)ethoxy)methyl)-4-(4,4-dimethylpiperidin-1-yl)-5-(4-(4-fluorophenethoxy)phenyl)-2-methylpyridin-3-yl)acetic acid]",< 0.1
9,"Cc1nc(COCC2CCCC2)c(-c2ccc(OCCc3ccc(F)cc3)cc2)c(N2CCC(C)(C)CC2)c1[C@H](OC(C)(C)C)C(=O)O [Example 13, (S)-2-(tert-Butoxy)-2-(6-((cyclopentylmethoxy)methyl)-4-(4,4-dimethylpiperidin-1-yl)-5-(4-(4-fluorophenethoxy)phenyl)-2-methylpyridin-3-yl)acetic acid]",< 0.1
10,"CNC(=O)c1nc(C)c([C@H](OC(C)(C)C)C(=O)O)c(N2CCC(C)(C)CC2)c1-c1ccc(OCCc2ccc(F)cc2)cc1 [Example 40, (S)-2-(tert-Butoxy)-2-(4-(4,4-dimethylpiperidin-1-yl)-5-(4-(4-fluorophenethoxy)phenyl)-2-methyl-6-(methylcarbamoyl)pyridin-3-yl)acetic acid]",< 0.1
11,"CC1(C)CCN(c2c([C@H](OC(C)(C)C)C(=O)O)cnc(CCl)c2-c2ccc(OCCc3ccc(F)cc3)cc2)CC1 [Example 184, (S)-2-(tert-Butoxy)-2-(6-(chloromethyl)-4-(4,4-dimethylpiperidin-1-yl)-5-(4-(4-fluorophenethoxy)phenyl)pyridin-3-yl)acetic acid]",< 0.1
12,"Cc1nc(CN2CCC(F)(F)CC2)c(-c2ccc(OCCc3ccc(F)cc3)cc2)c(N2CCC(C)(C)CC2)c1[C@H](OC(C)(C)C)C(=O)O [Example 86, (S)-2-(tert-Butoxy)-2-(6-((4,4-difluoropiperidin-1-yl)methyl)-4-(4,4-dimethylpiperidin-1-yl)-5-(4-(4-fluorophenethoxy)phenyl)-2-methylpyridin-3-yl)acetic acid]",< 0.1
13,"Cc1nnc(C(=O)NCc2nc(C)c([C@H](OC(C)(C)C)C(=O)O)c(N3CCC(C)(C)CC3)c2-c2ccc3c(c2)CCN(Cc2ccc(F)cc2C)C3)o1 [Example 141, (S)-2-(tert-Butoxy)-2-(4-(4,4-dimethylpiperidin-1-yl)-5-(2-(4-fluoro-2-methylbenzyl)-1,2,3,4-tetrahydroisoquinolin-6-yl)-2-methyl-6-((5-methyl-1,3,4-oxadiazole-2-carboxamido)methyl)pyridin-3-yl)acetic acid]",< 0.1
14,"COc1ccccc1NCc1nc(C)c([C@H](OC(C)(C)C)C(=O)O)c(N2CCC(C)(C)CC2)c1-c1ccc(OCCc2ccc(F)cc2)cc1 [Example 91, (S)-2-(tert-Butoxy)-2-(4-(4,4-dimethylpiperidin-1-yl)-5-(4-(4-fluorophenethoxy)phenyl)-6-(((2-methoxyphenyl)amino)methyl)-2-methylpyridin-3-yl)acetic acid]",< 0.1
15,"CCCCN(C)C(=O)c1nc(C)c([C@H](OC(C)(C)C)C(=O)O)c(N2CCC(C)(C)CC2)c1-c1ccc(OCCc2ccc(F)cc2)cc1 [Example 43, (S)-2-(tert-Butoxy)-2-(6-(butyl(methyl)carbamoyl)-4-(4,4-dimethylpiperidin-1-yl)-5-(4-(4-fluorophenethoxy)phenyl)-2-methylpyridin-3-yl)acetic acid]",< 0.1
16,"CC#Cc1nc(C)c([C@H](OC(C)(C)C)C(=O)O)c(N2CCC(C)(C)CC2)c1-c1ccc(OCCc2ccc(F)cc2)cc1 [Example 163, (S)-2-(tert-butoxy)-2-(4-(4,4-dimethylpiperidin-1-yl)-5-(4-(4-fluorophenethoxy)phenyl)-2-methyl-6-(prop-1-yn-1-yl)pyridin-3-yl)acetic acid]",< 0.1
17,"Cc1nc(COCC2CN(C(=O)OC(C)(C)C)C2)c(-c2ccc(OCCc3ccc(F)cc3)cc2)c(N2CCC(C)(C)CC2)c1[C@H](OC(C)(C)C)C(=O)O [Example 21, (S)-2-(tert-Butoxy)-2-(6-(((1-(tert-butoxycarbonyl)azetidin-3-yl)methoxy)methyl)-4-(4,4-dimethylpiperidin-1-yl)-5-(4-(4-fluorophenethoxy)phenyl)-2-methylpyridin-3-yl)acetic acid]",< 0.1
18,"Cc1cc(F)ccc1CN1CCc2cc(-c3c(CN4CCC4)nc(C)c([C@H](OC(C)(C)C)C(=O)O)c3N3CCC(C)(C)CC3)ccc2C1 [Example 117, (S)-2-(6-(Azetidin-1-ylmethyl)-4-(4,4-dimethylpiperidin-1-yl)-5-(2-(4-fluoro-2-methylbenzyl)-1,2,3,4-tetrahydroisoquinolin-6-yl)-2-methylpyridin-3-yl)-2-(tert-butoxy)acetic acid]",< 0.1
19,"Cc1nc(CN2CCCC2)c(-c2ccc(OCCc3ccc(F)cc3)cc2)c(N2CCC(C)(C)CC2)c1[C@H](OC(C)(C)C)C(=O)O [Example 75, (S)-2-(tert-Butoxy)-2-(4-(4,4-dimethylpiperidin-1-yl)-5-(4-(4-fluorophenethoxy)phenyl)-2-methyl-6-(pyrrolidin-1-ylmethyl)pyridin-3-yl)acetic acid]",< 0.1
20,"Cc1cc(F)ccc1CN1CCc2cc(-c3c(CN4CCC5(CCC5)CC4)nc(C)c([C@H](OC(C)(C)C)C(=O)O)c3N3CCC(C)(C)CC3)ccc2C1 [Example 134, (S)-2-(6-(7-Azaspiro[3.5]nonan-7-ylmethyl)-4-(4,4-dimethylpiperidin-1-yl)-5-(2-(4-fluoro-2-methylbenzyl)-1,2,3,4-tetrahydroisoquinolin-6-yl)-2-methylpyridin-3-yl)-2-(tert-butoxy)acetic acid]",< 0.1
21,"Cc1nc(CN(C)C)c(-c2ccc(OCCc3ccc(F)cc3)cc2)c(N2CCC(C)(C)CC2)c1[C@H](OC(C)(C)C)C(=O)O [Example 65, (S)-2-(tert-Butoxy)-2-(6-((dimethylamino)methyl)-4-(4,4-dimethylpiperidin-1-yl)-5-(4-(4-fluorophenethoxy)phenyl)-2-methylpyridin-3-yl)acetic acid]",< 0.1
22,"CO/C=C/c1nc(C)c([C@H](OC(C)(C)C)C(=O)O)c(N2CCC(C)(C)CC2)c1-c1ccc(OCCc2ccc(F)cc2)cc1 [Example 57, (S,E)-2-(tert-Butoxy)-2-(4-(4,4-dimethylpiperidin-1-yl)-5-(4-(4-fluorophenethoxy)phenyl)-6-(2-methoxyvinyl)-2-methylpyridin-3-yl)acetic acid]",< 0.1
23,"Cc1nc(CN2CCCc3ccccc32)c(-c2ccc(OCCc3ccc(F)cc3)cc2)c(N2CCC(C)(C)CC2)c1[C@H](OC(C)(C)C)C(=O)O [Example 89, (S)-2-(tert-Butoxy)-2-(6-((3,4-dihydroquinolin-1(2H)-yl)methyl)-4-(4,4-dimethylpiperidin-1-yl)-5-(4-(4-fluorophenethoxy)phenyl)-2-methylpyridin-3-yl)acetic acid]",< 0.1

# Same assay, conditions: Human immunodeficiency virus 1, MT2, 120 h, read-out: EC50 μM
row,Structure (SMILES),EC50 [µM]
1,"CC1(C)CCN(c2c([C@H](OC(C)(C)C)C(=O)O)cnc(CCl)c2-c2ccc(OCCc3ccc(F)cc3)cc2)CC1 [Example 184, (S)-2-(tert-Butoxy)-2-(6-(chloromethyl)-4-(4,4-dimethylpiperidin-1-yl)-5-(4-(4-fluorophenethoxy)phenyl)pyridin-3-yl)acetic acid]",0.04
2,"COc1ccccc1NCc1nc(C)c([C@H](OC(C)(C)C)C(=O)O)c(N2CCC(C)(C)CC2)c1-c1ccc(OCCc2ccc(F)cc2)cc1 [Example 91, (S)-2-(tert-Butoxy)-2-(4-(4,4-dimethylpiperidin-1-yl)-5-(4-(4-fluorophenethoxy)phenyl)-6-(((2-methoxyphenyl)amino)methyl)-2-methylpyridin-3-yl)acetic acid]",0.018
3,"Cc1cc(F)ccc1CN1CCc2cc(-c3c(CN4CCC5(CCC5)CC4)nc(C)c([C@H](OC(C)(C)C)C(=O)O)c3N3CCC(C)(C)CC3)ccc2C1 [Example 134, (S)-2-(6-(7-Azaspiro[3.5]nonan-7-ylmethyl)-4-(4,4-dimethylpiperidin-1-yl)-5-(2-(4-fluoro-2-methylbenzyl)-1,2,3,4-tetrahydroisoquinolin-6-yl)-2-methylpyridin-3-yl)-2-(tert-butoxy)acetic acid]",0.001
4,"CO/C=C/c1nc(C)c([C@H](OC(C)(C)C)C(=O)O)c(N2CCC(C)(C)CC2)c1-c1ccc(OCCc2ccc(F)cc2)cc1 [Example 57, (S,E)-2-(tert-Butoxy)-2-(4-(4,4-dimethylpiperidin-1-yl)-5-(4-(4-fluorophenethoxy)phenyl)-6-(2-methoxyvinyl)-2-methylpyridin-3-yl)acetic acid]",0.012
